US20200055896A1, “SUBSTRATES RECOGNIZED BY FIBROBLAST ACTIVATION PROTEIN (FAP) AND METHODS OF USING THE SAME” (GENENTECH, INC., priority 2017, published 2020)
Entries after “also recorded” stand apart in the source; their conditions may differ. One block for each compound: values may come before it.

Assays:
[1] = tested on: GP probe cleaving activity in plasma; assay: GP cleavage in mouse plasma in the presence of cpd60 and/or KYP; format: biochemical, mice
Method: (§1) Mouse plasma samples were prepared in K3-EDTA MiniCollect tubes (Greiner Bio-One, 450475) and frozen immediately at −80° C. prior to analysis. Human serum samples were obtained from healthy donors or purchased from Discovery Life Sciences, Inc. (Los Osos, Calif.).
(§2) Peptides of the region flanking the C-terminal human FGF21 cleavage site (VGPSQG) or a variant with D-alanine at P2 (VaPSQG) were synthesized (Anaspec, Inc.), containing an amine-terminal donor (HyLite Fluor 488 or Cy5.5 for aP NIRF) and a dark quencher-acceptor (QXL 520 or QSY21 for aP NIRF) conjugated to a supplementary C-terminal lysine. ANPFAP (Bioconjugate Chem 23:1704-11) and aP NIRF were synthesized by CPC Scientific (Sunnyvale, Calif.). Assays were conducted at 37° C. in 50 mM HEPES (pH 7.2), 150 mM NaCl, 1 mM EDTA, 0.1 mg/ml BSA. The excitation/emission wavelengths of cleaved peptide are 490/520 nm or 675/695 nm for ANPFAP and aP NIRF. Fluorescence was monitored on a Tecan M1000 Pro plate reader in kinetic mode. Except where indicated otherwise, measurements of serum or plasma FAP activity were performed with the peptide substrate concentration at 6 μM and a 10-fold dilution of serum or plasma in assay buffer.

FAP-related activity = settings: cynomolgus monkeys, cited from earlier work
circulating FAP activity = biological target: T1, circulating FAP activity (Mus musculus, UniProt P97321); assay: In vivo pharmacological FAP inhibition: mice fed chow with cpd60, plasma FAP activity by aP peptide; settings: chow with 100 ppm cpd60 ad libitum, day 4 and 7
T1 construct: the extracellular domain encoding the active enzyme can be shed from the cell surface; from tissue; host or cells: mouse plasma (C57BL/6 background; Fap +/+, +/-, -/-)
T1 sequence (P97321 24-761 limits assumed): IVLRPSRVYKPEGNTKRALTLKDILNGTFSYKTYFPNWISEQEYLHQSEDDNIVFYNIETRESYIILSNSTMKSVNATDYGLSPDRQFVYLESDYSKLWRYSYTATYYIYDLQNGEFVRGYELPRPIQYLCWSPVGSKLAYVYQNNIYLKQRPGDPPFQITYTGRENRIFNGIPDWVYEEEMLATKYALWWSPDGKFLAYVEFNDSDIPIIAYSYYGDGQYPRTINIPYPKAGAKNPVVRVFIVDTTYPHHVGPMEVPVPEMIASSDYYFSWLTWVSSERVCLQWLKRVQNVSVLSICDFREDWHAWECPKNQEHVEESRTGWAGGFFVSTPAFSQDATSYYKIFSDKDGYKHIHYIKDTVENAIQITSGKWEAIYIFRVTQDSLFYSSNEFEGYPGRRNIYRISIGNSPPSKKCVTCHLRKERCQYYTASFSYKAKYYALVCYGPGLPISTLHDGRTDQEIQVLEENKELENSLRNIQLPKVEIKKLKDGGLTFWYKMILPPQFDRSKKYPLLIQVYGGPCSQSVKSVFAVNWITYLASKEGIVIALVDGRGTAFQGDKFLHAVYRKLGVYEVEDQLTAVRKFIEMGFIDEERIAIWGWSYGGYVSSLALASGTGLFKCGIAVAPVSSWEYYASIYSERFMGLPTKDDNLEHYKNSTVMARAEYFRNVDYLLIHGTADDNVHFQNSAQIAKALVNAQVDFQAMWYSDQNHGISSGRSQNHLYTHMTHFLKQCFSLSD
Method: Mice were maintained in a pathogen-free animal facility at 21° C. under standard 12 h light/12 h dark cycle with access to normal chow (Labdiet 5010) and water ad libitum unless otherwise indicated. Generation of Fap KO mice was described previously (Dunshee, et al. (2016) J Biol Chem 291:5986-96).
as §1
as §2, with “Except where indicated otherwise, measurements of serum or plasma FAP activity were performed with the peptide substrate concentration at 6 μM and a 10-fold dilution of serum or plasma in assay buffer.” left out

recombinant human PREP = biological target: T2, recombinant human PREP (Homo sapiens, UniProt P48147); assay: FRET-quench assay: probe cleavage by recombinant human PREP; format: biochemical; settings: 10 nM enzyme
T2 construct: purchased R&D Systems 4308-SE
T2 sequence (P48147 1-710): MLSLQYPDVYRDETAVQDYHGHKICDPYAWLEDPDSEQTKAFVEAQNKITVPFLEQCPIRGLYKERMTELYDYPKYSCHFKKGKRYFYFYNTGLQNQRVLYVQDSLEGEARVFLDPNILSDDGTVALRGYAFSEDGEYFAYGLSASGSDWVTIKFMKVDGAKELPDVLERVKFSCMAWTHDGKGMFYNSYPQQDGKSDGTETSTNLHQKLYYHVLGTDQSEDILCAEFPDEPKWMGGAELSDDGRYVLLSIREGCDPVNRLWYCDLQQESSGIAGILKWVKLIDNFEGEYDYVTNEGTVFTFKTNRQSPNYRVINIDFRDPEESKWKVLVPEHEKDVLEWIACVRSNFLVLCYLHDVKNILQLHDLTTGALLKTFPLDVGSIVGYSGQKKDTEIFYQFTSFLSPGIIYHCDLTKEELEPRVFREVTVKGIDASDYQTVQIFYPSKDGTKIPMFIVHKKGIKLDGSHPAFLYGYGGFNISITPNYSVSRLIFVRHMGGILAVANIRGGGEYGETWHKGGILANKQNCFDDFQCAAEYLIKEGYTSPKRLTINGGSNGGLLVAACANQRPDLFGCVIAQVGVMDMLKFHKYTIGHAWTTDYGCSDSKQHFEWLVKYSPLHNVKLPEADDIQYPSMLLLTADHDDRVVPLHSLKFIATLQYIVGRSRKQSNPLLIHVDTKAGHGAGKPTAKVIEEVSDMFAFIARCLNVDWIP
Text: (§3) Human prolyl oligopeptidase (PREP, 4308-SE), DPPIV (1180-SE), DPP9 (5419-SE), and DPPII/DPP7 (3438-SE) proteins were purchased from R&D Systems. Human DPP8 (BML-SE527) protein was purchased from Enzo Life Sciences. N-terminal octa-His-tagged human and mouse FAP proteins containing the extracellular domain (residues L26-D760 and L26-D761, respectively) were purified from the conditioned media of transiently-transfected CHO cells, by immobilized metal affinity chromatography (IMAC), followed by size exclusion chromatography (SEC).
as §2

tissue FAP activity = biological target: T3, tissue FAP activity (Mus musculus, UniProt P97321); assay: Ex vivo NIRF imaging of pancreata after i.v. probe in KPP and healthy C57BL/6 mice
T3 construct: from tissue
T3 sequence (P97321 1-761): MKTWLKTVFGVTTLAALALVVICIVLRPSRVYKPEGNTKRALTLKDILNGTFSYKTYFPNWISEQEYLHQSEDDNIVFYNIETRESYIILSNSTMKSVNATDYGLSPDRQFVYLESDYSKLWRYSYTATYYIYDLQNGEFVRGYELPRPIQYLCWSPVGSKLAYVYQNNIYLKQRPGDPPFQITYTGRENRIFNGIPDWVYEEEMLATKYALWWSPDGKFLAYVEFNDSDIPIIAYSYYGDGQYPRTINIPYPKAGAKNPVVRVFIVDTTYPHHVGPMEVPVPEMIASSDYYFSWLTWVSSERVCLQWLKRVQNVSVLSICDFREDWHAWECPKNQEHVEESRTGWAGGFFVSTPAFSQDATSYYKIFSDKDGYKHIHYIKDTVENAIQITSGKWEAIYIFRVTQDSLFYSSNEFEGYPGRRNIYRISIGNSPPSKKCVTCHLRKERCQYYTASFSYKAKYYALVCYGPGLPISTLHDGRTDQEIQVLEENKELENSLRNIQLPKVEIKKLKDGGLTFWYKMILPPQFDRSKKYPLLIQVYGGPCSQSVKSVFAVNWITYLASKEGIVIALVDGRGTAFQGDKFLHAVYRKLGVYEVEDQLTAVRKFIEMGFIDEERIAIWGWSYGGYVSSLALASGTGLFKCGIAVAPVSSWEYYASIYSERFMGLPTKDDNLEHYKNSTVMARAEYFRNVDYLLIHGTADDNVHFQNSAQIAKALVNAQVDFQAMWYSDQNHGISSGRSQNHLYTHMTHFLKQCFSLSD
Text: The utility of the VaPSQG-NIRF probe for imaging of tissue FAP activity was studied in a genetically engineered mouse model of pancreatic cancer, KrasLSL.G12D/wt;p16/p19fl/fl;Pdx1. Cre, or “KPP” for short (Singh, M. et al. Nat. Biotechnol. 28:585-593 (2010); Aguirre, A. J. et al. Genes Dev. 17:3112-26 (2003)). […] The VaPSQG-NIRF probe was synthesized by CPC Scientific (Sunnyvale, Calif.).
Prior to the imaging study, three KPP mice (9.3 weeks old) with varying tumor volumes were selected based on an in vivo ultrasound scan. Additionally, three healthy C57BL/6 mice (8.3 weeks old) were also studied as controls. One nmol VaPSQG-NIRF probe diluted in 150 microL of PBS was intravenously administered to each mouse via tail vein under anesthesia. […] After 4 hours, the mice were euthanized and pancreas tissues were dissected. The dissected tissues were rinsed with PBS, dried with tissue paper, and put on black paper for ex vivo NIRF imaging. Near infrared images are acquired using a CCD camera (Pearl Trilogy, Li-cor).

recombinant human FAP = biological target: T4, recombinant human FAP (Homo sapiens, UniProt Q12884); assay: FRET-quench assay: probe cleavage by recombinant human FAP; format: biochemical; settings: 10 nM enzyme
T4 construct: (residues L26-D760 and L26-D761, respectively); octa-His (N); made in house; host or cells: transiently transfected CHO cells (conditioned media)
T4 sequence (Q12884 26-760): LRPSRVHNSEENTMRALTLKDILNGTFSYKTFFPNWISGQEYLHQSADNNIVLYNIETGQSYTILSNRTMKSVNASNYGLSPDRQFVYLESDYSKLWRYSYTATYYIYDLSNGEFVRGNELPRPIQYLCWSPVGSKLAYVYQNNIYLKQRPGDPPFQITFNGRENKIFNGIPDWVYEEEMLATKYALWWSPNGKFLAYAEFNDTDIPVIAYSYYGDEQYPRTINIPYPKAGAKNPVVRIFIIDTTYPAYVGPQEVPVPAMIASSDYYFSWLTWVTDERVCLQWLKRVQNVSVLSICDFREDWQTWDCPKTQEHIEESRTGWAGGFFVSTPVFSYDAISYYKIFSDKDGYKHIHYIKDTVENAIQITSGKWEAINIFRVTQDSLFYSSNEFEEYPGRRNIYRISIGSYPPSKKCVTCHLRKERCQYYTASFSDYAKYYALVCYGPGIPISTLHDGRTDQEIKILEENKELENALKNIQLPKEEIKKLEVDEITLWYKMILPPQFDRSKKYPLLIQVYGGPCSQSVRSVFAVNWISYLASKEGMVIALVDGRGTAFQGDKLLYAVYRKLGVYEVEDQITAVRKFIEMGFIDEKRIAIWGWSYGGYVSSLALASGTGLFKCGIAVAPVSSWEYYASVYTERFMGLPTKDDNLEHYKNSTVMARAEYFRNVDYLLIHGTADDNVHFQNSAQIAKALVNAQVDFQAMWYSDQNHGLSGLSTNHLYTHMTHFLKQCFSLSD
Text: as §3, §2

Compound: N#C[C@@H]1CCCN1C(=O)[C@@H]1CCCN1C(=O)CCCc1ccccc1 [KYP-2047]
sensitivity of residual GP probe cleaving activity to the inhibitor ([1]; Fap KO plasma): sensitive

Compound: N#C[C@@H]1CC(F)(F)CN1C(=O)CNC(=O)c1ccnc2ccccc12 [cpd60]
sensitivity of GP probe activity to the inhibitor ([1]; WT or heterozygous plasma): clearly sensitive
change in FAP-related activity (FAP-related activity; bolus p.o.): transient decrease
clearance from circulation (FAP-related activity): rapid clearance
suppression of circulating (plasma) FAP activity (circulating FAP activity): completely suppress; also recorded: undetectable levels; also recorded: completely suppressed

cleavage by recombinant human PREP (recombinant human PREP): not
relative fluorescence intensities normalized to imaging area, KPP versus healthy control pancreata (tissue FAP activity; 4 hours after 1 nmol i.v., P<0.05): much greater fluorescence
ex vivo imaging fluorescent signal of pancreata (tissue FAP activity; KPP group, 4 hours after 1 nmol i.v.): strong fluorescent signal
cleavage by recombinant human FAP (recombinant human FAP): efficiently cleaves
Compound: aP NIRF: identical to aP, but the FRET donor and quencher replaced with Cy5.5 and QSY21
treatment-related adverse effect (tissue FAP activity; mice, 1 nmol i.v. via tail vein, until euthanasia after 4 hours): No treatment-related adverse effect was observed
